According to patent US20130158073A1, “Methods Of Diminishing Co-Abuse Potential” (priority 2004, published 2013):
Where a name gives a salt, the structure may show the parent alone.

What was measured:
[1] = cited from earlier work
[2] = tested on: male Sprague-Dawley rats; details: coadministered with 10% w/v ethanol
[3] = co-administration of racemic methylphenidate and ethanol

COC(=O)C(c1ccccc1)C1CCCCN1 (racemic) [d,l-MPH, d,l-methylphenidate HCl]
isomer excreted in the urine [1, 3]: primarily as the d-isomer
ethylphenidate metabolite in plasma and urine ([1]; human subjects, co-administration of a single dose of methylphenidate and ethanol): ethylphenidate was also detected in plasma and urine
potency compared to ethanol/cocaine for discriminative stimulus effects ([2]; i.p.): equipotent
potency compared to ethanol/cocaine for response rate effects ([2]; i.p.): equipotent
rates of response compared with saline control test sessions, at doses producing full ethanol/cocaine-lever responding ([2]; i.p. 15 minutes before session): do not decrease rates of response

CCOC(=O)C(c1ccccc1)C1CCCCN1 (centres unmarked) [Ethylphenidate]
isomer excreted in the urine [1, 3]: primarily as the l-isomer

COC(=O)[C@H](c1ccccc1)[C@H]1CCCCN1 [d-MPH, dexmethylphenidate HCl]
potency compared to ethanol/d,l-MPH ([2]; i.p.): half as potent

COC(=O)[C@@H](c1ccccc1)[C@@H]1CCCCN1 [l-methylphenidate]
transesterification after co-administration of racemic methylphenidate and ethanol [1, 3]: transesterifies enantioselectively to l-ethylphenidate
